The supplement of paper PMC10307832

Experiments:
Experiment in all cases: relative viability (nuclei count vs DMSO), 5 days (fraction); higher = more cells survive
NCI-H1915 = tested on: NCI-H1915
Procedure, shortened: (§1)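 Five library-drug doses in √10 steps were combined with a fixed anchor-drug dose, or a single drug was given alone, by pin tool to lung cancer cell lines in 1536-well plates the day after seeding. Nuclei were stained and counted after 5 days. Relative viability is the nuclei count in treated wells over that in vehicle wells, taken as the median of duplicate plates.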

EBC-1 = tested on: EBC-1
Procedure, shortened: as §1

NCI-H1793 = tested on: NCI-H1793
Procedure, shortened: as §1

NCI-H1703 = tested on: NCI-H1703
Procedure, shortened: as §1

A549 = tested on: A549
Procedure, shortened: as §1

IA-LM = tested on: IA-LM
Procedure, shortened: as §1

NCI-H650 = tested on: NCI-H650
Procedure, shortened: as §1

HCC-15 = tested on: HCC-15
Procedure, shortened: as §1

Calu-6 = tested on: Calu-6
Procedure, shortened: as §1

NCI-H1975 = tested on: NCI-H1975
Procedure, shortened: as §1

NCI-H1299 = tested on: NCI-H1299
Procedure, shortened: as §1

HARA = tested on: HARA
Procedure, shortened: as §1

SK-LU-1 = tested on: SK-LU-1
Procedure, shortened: as §1

**Q.** What does the source list for COCC1(CO)C(=O)C2CCN1CC2 (stereo not given) [PRIMA-1MET] + CS(=O)(=O)CCNCc1ccc(-c2ccc3ncnc(Nc4ccc(OCc5cccc(F)c5)c(Cl)c4)c3c2)o1 [Lapatinib] (partner 2 µM)?
**A.** relative viability (NCI-H1915; first compound 0.2 µM): 1.07; relative viability (NCI-H1915; first compound 0.6325 µM): 0.845; relative viability (NCI-H1915; first compound 2 µM): 0.864; relative viability (NCI-H1915; first compound 6.325 µM): 0.925; relative viability (NCI-H1915; first compound 20 µM): 0.958; relative viability (EBC-1; first compound 0.2 µM): 0.22; relative viability (EBC-1; first compound 0.6325 µM): 0.214; relative viability (EBC-1; first compound 2 µM): 0.203; relative viability (EBC-1; first compound 6.325 µM): 0.216; relative viability (EBC-1; first compound 20 µM): 0.201; relative viability (NCI-H1793; first compound 0.2 µM): 0.707; relative viability (NCI-H1793; first compound 0.6325 µM): 0.68; relative viability (NCI-H1793; first compound 6.325 µM): 0.592; relative viability (NCI-H1793; first compound 20 µM): 0.646; relative viability (NCI-H1703; first compound 0.2 µM): 1.25; relative viability (NCI-H1703; first compound 0.6325 µM): 0.834; relative viability (NCI-H1703; first compound 2 µM): 1.01; relative viability (NCI-H1703; first compound 6.325 µM): 1.04; relative viability (NCI-H1703; first compound 20 µM): 0.145; relative viability (A549; first compound 0.2 µM): 1.07; relative viability (A549; first compound 0.6325 µM): 0.977; relative viability (A549; first compound 2 µM): 1.05; relative viability (A549; first compound 6.325 µM): 1.01; relative viability (A549; first compound 20 µM): 0.943; relative viability (IA-LM; first compound 0.2 µM): 0.686; relative viability (IA-LM; first compound 0.6325 µM): 0.746; relative viability (IA-LM; first compound 2 µM): 0.724; relative viability (IA-LM; first compound 6.325 µM): 0.73; relative viability (IA-LM; first compound 20 µM): 0.637; relative viability (NCI-H650; first compound 0.2 µM): 1.24; relative viability (NCI-H650; first compound 2 µM): 0.914; relative viability (NCI-H650; first compound 6.325 µM): 0.871; relative viability (NCI-H650; first compound 20 µM): 0.0916; relative viability (HCC-15; first compound 0.2 µM): 0.811; relative viability (HCC-15; first compound 0.6325 µM): 0.743; relative viability (HCC-15; first compound 2 µM): 0.777; relative viability (HCC-15; first compound 6.325 µM): 0.853; relative viability (HCC-15; first compound 20 µM): 0.623; relative viability (Calu-6; first compound 0.2 µM): 1.14; relative viability (Calu-6; first compound 0.6325 µM): 1.08; relative viability (Calu-6; first compound 2 µM): 1.11; relative viability (Calu-6; first compound 6.325 µM): 1.01; relative viability (Calu-6; first compound 20 µM): 0.847; relative viability (NCI-H1975; first compound 0.2 µM): 0.988; relative viability (NCI-H1975; first compound 0.6325 µM): 0.786; relative viability (NCI-H1975; first compound 2 µM): 0.774; relative viability (NCI-H1975; first compound 6.325 µM): 0.947; relative viability (NCI-H1975; first compound 20 µM): 0.816; relative viability (NCI-H1299; first compound 0.2 µM): 0.977; relative viability (NCI-H1299; first compound 0.6325 µM): 0.996; relative viability (NCI-H1299; first compound 2 µM): 0.969; relative viability (NCI-H1299; first compound 6.325 µM): 0.99; relative viability (NCI-H1299; first compound 20 µM): 0.947; relative viability (HARA; first compound 0.2 µM): 0.782; relative viability (HARA; first compound 0.6325 µM): 0.649; relative viability (HARA; first compound 6.325 µM): 0.804; relative viability (HARA; first compound 20 µM): 0.706; relative viability (SK-LU-1; first compound 0.2 µM): 1.12; relative viability (SK-LU-1; first compound 0.6325 µM): 0.667; relative viability (SK-LU-1; first compound 2 µM): 0.61; relative viability (SK-LU-1; first compound 6.325 µM): 0.784; relative viability (SK-LU-1; first compound 20 µM): 0.235

**Q.** With COCC1(CO)C(=O)C2CCN1CC2 (stereo not given) [PRIMA-1MET] + C[C@@H](Oc1cc(-c2cnn(C3CCNCC3)c2)cnc1N)c1c(Cl)ccc(F)c1Cl [Crizotinib] (partner 1 µM) as the molecule, how does the relative viability (NCI-H1915; first compound 0.2 µM) read?
**A.** The relative viability was 0.975.

**Q.** And the relative viability (NCI-H1915; first compound 0.6325 µM)?
**A.** Its relative viability is 0.703.

**Q.** And the relative viability (NCI-H1915; first compound 2 µM)?
**A.** The relative viability was 0.794.

**Q.** And the relative viability (NCI-H1915; first compound 6.325 µM)?
**A.** The relative viability was 0.912.

**Q.** And the relative viability (NCI-H1915; first compound 20 µM)?
**A.** Its relative viability is 0.852.

**Q.** And the relative viability (EBC-1; first compound 0.2 µM)?
**A.** The relative viability was 0.19.

**Q.** And the relative viability (EBC-1; first compound 0.6325 µM)?
**A.** The relative viability was 0.174.

**Q.** And the relative viability (EBC-1; first compound 2 µM)?
**A.** The relative viability was 0.197.

**Q.** And the relative viability (EBC-1; first compound 6.325 µM)?
**A.** Its relative viability is 0.192.

**Q.** What about the relative viability (EBC-1; first compound 20 µM) of the same molecule?
**A.** Its relative viability is 0.212.

**Q.** And the relative viability (NCI-H1703; first compound 0.2 µM)?
**A.** The relative viability was 0.749.

**Q.** And the relative viability (NCI-H1703; first compound 0.6325 µM)?
**A.** The relative viability was 0.861.

**Q.** What about the relative viability (NCI-H1703; first compound 2 µM) of the same molecule?
**A.** The relative viability was 0.784.

**Q.** What about the relative viability (NCI-H1703; first compound 6.325 µM) of the same molecule?
**A.** Its relative viability is 0.377.

**Q.** What about the relative viability (NCI-H1703; first compound 20 µM) of the same molecule?
**A.** Its relative viability is 0.0587.

**Q.** What about the relative viability (A549; first compound 0.2 µM) of the same molecule?
**A.** The relative viability was 0.961.

**Q.** What about the relative viability (A549; first compound 0.6325 µM) of the same molecule?
**A.** The relative viability was 0.577.

**Q.** And the relative viability (A549; first compound 2 µM)?
**A.** Its relative viability is 0.813.

**Q.** And the relative viability (A549; first compound 6.325 µM)?
**A.** Its relative viability is 0.817.

**Q.** And the relative viability (A549; first compound 20 µM)?
**A.** The relative viability was 0.746.

**Q.** What about the relative viability (IA-LM; first compound 0.2 µM) of the same molecule?
**A.** Its relative viability is 0.856.

**Q.** And the relative viability (IA-LM; first compound 0.6325 µM)?
**A.** The relative viability was 0.868.

**Q.** What about the relative viability (IA-LM; first compound 2 µM) of the same molecule?
**A.** Its relative viability is 0.955.

**Q.** What about the relative viability (IA-LM; first compound 6.325 µM) of the same molecule?
**A.** The relative viability was 0.851.

**Q.** What about the relative viability (IA-LM; first compound 20 µM) of the same molecule?
**A.** Its relative viability is 0.838.

**Q.** And the relative viability (NCI-H650; first compound 0.2 µM)?
**A.** The relative viability was 0.894.

**Q.** What about the relative viability (NCI-H650; first compound 2 µM) of the same molecule?
**A.** Its relative viability is 0.616.

**Q.** And the relative viability (NCI-H650; first compound 6.325 µM)?
**A.** The relative viability was 0.675.

**Q.** What about the relative viability (NCI-H650; first compound 20 µM) of the same molecule?
**A.** The relative viability was 0.109.

**Q.** What about the relative viability (HCC-15; first compound 0.2 µM) of the same molecule?
**A.** The relative viability was 0.925.

**Q.** What about the relative viability (HCC-15; first compound 0.6325 µM) of the same molecule?
**A.** Its relative viability is 0.786.

**Q.** And the relative viability (HCC-15; first compound 2 µM)?
**A.** Its relative viability is 0.802.

**Q.** And the relative viability (HCC-15; first compound 6.325 µM)?
**A.** The relative viability was 0.807.

**Q.** And the relative viability (HCC-15; first compound 20 µM)?
**A.** The relative viability was 0.706.

**Q.** And the relative viability (Calu-6; first compound 0.2 µM)?
**A.** Its relative viability is 0.795.

**Q.** What about the relative viability (Calu-6; first compound 0.6325 µM) of the same molecule?
**A.** Its relative viability is 0.901.

**Q.** What about the relative viability (Calu-6; first compound 2 µM) of the same molecule?
**A.** Its relative viability is 0.825.

**Q.** And the relative viability (Calu-6; first compound 6.325 µM)?
**A.** Its relative viability is 0.886.

**Q.** And the relative viability (Calu-6; first compound 20 µM)?
**A.** Its relative viability is 0.627.

**Q.** And the relative viability (NCI-H1975; first compound 0.2 µM)?
**A.** The relative viability was 1.12.

**Q.** And the relative viability (NCI-H1975; first compound 0.6325 µM)?
**A.** The relative viability was 0.962.

**Q.** And the relative viability (NCI-H1975; first compound 2 µM)?
**A.** The relative viability was 0.938.

**Q.** What about the relative viability (NCI-H1975; first compound 6.325 µM) of the same molecule?
**A.** Its relative viability is 0.939.

**Q.** And the relative viability (NCI-H1975; first compound 20 µM)?
**A.** The relative viability was 0.828.

**Q.** What about the relative viability (NCI-H1299; first compound 0.2 µM) of the same molecule?
**A.** Its relative viability is 0.988.

**Q.** And the relative viability (NCI-H1299; first compound 0.6325 µM)?
**A.** Its relative viability is 0.728.

**Q.** What about the relative viability (NCI-H1299; first compound 2 µM) of the same molecule?
**A.** The relative viability was 1.

**Q.** And the relative viability (NCI-H1299; first compound 6.325 µM)?
**A.** The relative viability was 0.978.

**Q.** What about the relative viability (NCI-H1299; first compound 20 µM) of the same molecule?
**A.** The relative viability was 0.955.

**Q.** And the relative viability (HARA; first compound 0.2 µM)?
**A.** Its relative viability is 1.17.

**Q.** What about the relative viability (HARA; first compound 0.6325 µM) of the same molecule?
**A.** The relative viability was 1.04.

**Q.** And the relative viability (HARA; first compound 6.325 µM)?
**A.** Its relative viability is 0.987.

**Q.** What about the relative viability (HARA; first compound 20 µM) of the same molecule?
**A.** The relative viability was 0.99.

**Q.** And the relative viability (SK-LU-1; first compound 0.2 µM)?
**A.** Its relative viability is 0.93.

**Q.** What about the relative viability (SK-LU-1; first compound 0.6325 µM) of the same molecule?
**A.** Its relative viability is 0.729.

**Q.** What about the relative viability (SK-LU-1; first compound 2 µM) of the same molecule?
**A.** Its relative viability is 0.837.

**Q.** What about the relative viability (SK-LU-1; first compound 6.325 µM) of the same molecule?
**A.** Its relative viability is 1.09.

**Q.** And the relative viability (SK-LU-1; first compound 20 µM)?
**A.** Its relative viability is 0.114.
